Test results: PubChem BioAssay AID652101 (NMMLSC, 2013)
The source made the active and inactive calls.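 The calls were made as follows: active = at least 15% inhibition at the top concentration together with an EC50 under 10 microM; inactive = the rest.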

Experiment: potency against LAMP-1 externalization in TALL-104 – TALL-104 cells, flow cytometry, CherryPick01, dose response (AID 652101);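 also: 0% = stimulated DMSO control and 100% = unstimulated control wells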
Details: TALL-104 lytic granule exocytosis, LAMP-1 flow cytometry; at 15.1 µM (top of the series)

**Q.** For `Cc1cccc(C)c1-n1nnnc1C(CCc1ccccc1)N1CCC(n2c(=O)[nH]c3ccccc32)CC1` (stereo not given), which inhibition is on record?
**A.** The inhibition was 94.8% (inactive).

**Q.** With `COC(=O)c1ccc(NC(=O)CSc2nc3ccc(N4C(=O)C5C6C=CC(C6)C5C4=O)cc3s2)cc1` (stereo not given) as the compound, how does the inhibition read?
**A.** The inhibition was 92.5% (inactive).

**Q.** With `CC(C)CNC(=O)c1c(N)n(Cc2ccc3c(c2)OCO3)c2nc3ccccc3nc12` as the compound, how does the inhibition read?
**A.** The inhibition was 69.2% (inactive).

**Q.** With `CCOc1cccc(CNCCc2c(C)[nH]c3ccc(OC(F)(F)F)cc23)c1O` as the compound, how does the inhibition read?
**A.** The inhibition was 82.3% (inactive).

Same assay, conditions: TALL-104 lytic granule exocytosis, LAMP-1 flow cytometry; at 15.1 µM (top of the series); stimulated with 1 µM thapsigargin, 50 nM PMA

**Q.** Which inhibition does the source give for `COc1ccc2sc(N(CCCN(C)C)C(=O)c3ccc(S(=O)(=O)N4CCc5ccccc5C4)cc3)nc2c1` here?
**A.** The inhibition was 50% (inactive).

**Q.** For `Cc1cncn1CCc1nc2c3ccccc3nc(SCC(=O)Nc3cccc(Cl)c3)n2n1`, which inhibition is on record?
**A.** Its inhibition is 104% (inactive).

**Q.** With `CC(=O)Nc1cc(-c2ccccc2F)cn2c(-c3ccccc3)cnc12` as the compound, how does the inhibition read?
**A.** Its inhibition is 106% (inactive).

**Q.** Which inhibition does the source give for `O=C(Nc1ccc2nc(-c3cccs3)c(-c3cccs3)nc2c1)NC1CC1` here?
**A.** Its inhibition is 68.3% (inactive).

**Q.** With `Brc1ccccc1C1Nc2cccc3cccc(c23)N1` as the compound, how does the inhibition read?
**A.** The inhibition was -2.38% (inactive).

**Q.** For `COCCNc1nc(NCc2cccc(OC)c2)c2sc(-c3ccccc3)cc2n1`, which inhibition is on record?
**A.** Its inhibition is 105% (inactive).

**Q.** Which inhibition does the source give for `Cn1cncc1C#Cc1c(-c2ccc(S(C)(=O)=O)cc2)sc2ccccc12` here?
**A.** Its inhibition is 102% (inactive).

**Q.** For `O=C(Nc1nc2ccc(SC(F)F)cc2s1)c1ccc(NS(=O)(=O)c2ccc(F)c(F)c2)cc1`, which inhibition is on record?
**A.** Its inhibition is 105% (inactive).

**Q.** With `NCCc1c(-c2ccccc2)n(-c2ccccc2)c2ccccc12` as the compound, how does the inhibition read?
**A.** The inhibition was 68.2% (inactive).

**Q.** Which inhibition does the source give for `CC(=O)Nc1ccc2sn(-c3ccccc3)c(=O)c2c1` here?
**A.** Its inhibition is 81.8% (inactive).

**Q.** For `Cc1ccc(Cl)cc1-c1cc(C(=O)NCc2ccc(C(F)(F)F)cc2)[nH]n1`, which inhibition is on record?
**A.** The inhibition was 103% (inactive).

**Q.** For `CCCCN(CCCC)c1nc(-c2ccncc2)nc2ccccc12`, which inhibition is on record?
**A.** The inhibition was 85.6% (inactive).

**Q.** For `CCOc1ccc2nc(N(CCCN(C)C)C(=O)c3ccc(S(=O)(=O)N4CCc5ccccc5C4)cc3)sc2c1`, which inhibition is on record?
**A.** The inhibition was 37% (inactive).

**Q.** Which inhibition does the source give for `COc1ccc(C2CC(c3cccs3)=NN2c2nc(C)c(C(C)=O)s2)cc1OC` (stereo not given) here?
**A.** Its inhibition is 2.08% (inactive).

**Q.** Which inhibition does the source give for `CCOC(=O)c1c(CSc2ccccc2)n(C)c2cc(Br)c(O)c(CN(C)C)c12` here?
**A.** The inhibition was 20.5% (inactive).

**Q.** For `Cn1c(=O)c(N)c2c3c(c(Br)ccc31)C(=O)c1ccccc1-2`, which inhibition is on record?
**A.** The inhibition was 1.57% (inactive).

**Q.** Which inhibition does the source give for `CC1(C(=O)OCC(=O)Nc2nc(-c3ccc(F)c(F)c3)cs2)CC1(Cl)Cl` (stereo not given) here?
**A.** Its inhibition is 95% (inactive).

**Q.** With `O=c1c2ccccc2sn1-c1ccc(Cl)cc1` as the compound, how does the inhibition read?
**A.** The inhibition was 103% (inactive).

**Q.** With `Cc1cc(C)c2sc(N(CCCN(C)C)C(=O)c3ccc(S(=O)(=O)N4CCc5ccccc5C4)cc3)nc2c1` as the compound, how does the inhibition read?
**A.** Its inhibition is -21.4% (inactive).

**Q.** With `CN(C)CCCNC(=S)NCC(c1ccc(Cl)cc1Cl)c1c[nH]c2ccccc12` (stereo not given) as the compound, how does the inhibition read?
**A.** The inhibition was 92.7% (inactive).

**Q.** For `O=C(CCN1CCc2ccccc2C(c2ccccc2)C1)c1ccc2c(c1)OCCO2` (stereo not given), which inhibition is on record?
**A.** The inhibition was 101% (inactive).

**Q.** Which inhibition does the source give for `O=c1c2ccc(F)cc2sn1-c1ccccc1` here?
**A.** The inhibition was 75.9% (inactive).

**Q.** With `COc1cc(-c2coc3c(C(=O)NCc4ccc(OC)c(OC)c4)cccc23)ccc1O` as the compound, how does the inhibition read?
**A.** The inhibition was 104% (inactive).

**Q.** With `COc1ccc2[nH]c3c(N4CCc5ccccc5C4)ncnc3c2c1` as the compound, how does the inhibition read?
**A.** The inhibition was 89.2% (inactive).

**Q.** Which inhibition does the source give for `c1ccc(COc2ccc(-c3cc4nc(NCCCn5ccnc5)ccn4n3)cc2)cc1` here?
**A.** Its inhibition is 106% (inactive).

**Q.** Which inhibition does the source give for `CCCNC(=O)Cn1sc2nc(C)cc(C)c2c1=O` here?
**A.** The inhibition was 97.3% (inactive).

**Q.** Which inhibition does the source give for `CN(C)CCCN(C(=O)CCSc1ccccc1)c1nc2cc3c(cc2s1)OCO3` here?
**A.** The inhibition was 90.1% (inactive).

**Q.** For `O=C(CCN1CCc2ccccc2CC1)c1ccc2c(c1)OCCO2`, which inhibition is on record?
**A.** The inhibition was 73.6% (inactive).

**Q.** With `CCN(CC)CCOC(=O)c1ccc(N/C=C(/C#N)c2nc(-c3ccc(OC)cc3)cs2)cc1` as the compound, how does the inhibition read?
**A.** Its inhibition is 56.9% (inactive).

**Q.** With `COC(=O)c1ccc(NCc2c(O)ccc(O)c2Br)cc1Cl` as the compound, how does the inhibition read?
**A.** Its inhibition is 72.6% (inactive).

**Q.** For `CCCCC[C@@H](C)N1C[C@H](COCc2ccccc2)Oc2cc(N3CC[C@@H](N(C)C)C3)ccc2S1(=O)=O`, which inhibition is on record?
**A.** Its inhibition is 65% (inactive).

**Q.** Which inhibition does the source give for `CCC(=C(c1ccc(OC)cc1)c1ccc(OC)cc1)c1cn(CC(O)CN2CCN(C)CC2)c2ccccc12` (stereo not given) here?
**A.** The inhibition was 87.4% (inactive).

**Q.** For `COC(=O)[C@]12CCCCC=C1N(Cc1cccc3ccccc13)C(=O)[C@H](CC(=O)NCc1ccc(OC)c(OC)c1)C2`, which inhibition is on record?
**A.** Its inhibition is 108% (inactive).

**Q.** For `Cc1ccc(C(=O)N/C(=C\c2ccc(-c3ccc(Br)cc3)o2)C(=O)NCCCN(C)C)cc1`, which inhibition is on record?
**A.** Its inhibition is -10.6% (inactive).

**Q.** For `O=CNc1cc(-c2ccsc2)cn2c(-c3ccccc3)cnc12`, which inhibition is on record?
**A.** The inhibition was 105% (inactive).

**Q.** For `COc1ccc(-c2cc(NC=O)c3ncc(-c4ccccc4)n3c2)cc1OC`, which inhibition is on record?
**A.** Its inhibition is 89.8% (inactive).

**Q.** For `Cn1sc(=O)c2cc(S(=O)(=O)NC3CC3)ccc21`, which inhibition is on record?
**A.** The inhibition was 103% (inactive).

**Q.** For `CN1CCN(CCCNC(=O)c2ccc(/C=C3\Sc4ccccc4N(Cc4ccc(F)cc4)C3=O)cc2)CC1`, which inhibition is on record?
**A.** Its inhibition is 89.7% (inactive).

**Q.** For `O=C1ON=C(c2ccccc2)/C1=C/c1ccc(-c2ccccc2[N+](=O)[O-])o1`, which inhibition is on record?
**A.** Its inhibition is 102% (inactive).

**Q.** With `O=C(Nc1nc(-c2ccccc2)cs1)c1ccc2c(=O)n3c(nc2c1)CCCCC3` as the compound, how does the inhibition read?
**A.** The inhibition was 74.2% (inactive).

**Q.** With `CC(=O)Nc1ccc2c(=O)n(-c3ccccc3)sc2c1` as the compound, how does the inhibition read?
**A.** Its inhibition is 67.8% (inactive).

**Q.** For `COC(=O)c1ccc(CCc2cc(O)c(Br)cc2O)cc1`, which inhibition is on record?
**A.** Its inhibition is 108% (inactive).

**Q.** With `CCOC(=O)c1cnc2ccc(OCC)cc2c1N(C)Cc1ccccc1` as the compound, how does the inhibition read?
**A.** The inhibition was 69.7% (inactive).

**Q.** With `CCc1nc2ccc(C(=O)NC3CCN(Cc4ccccc4)CC3)cn2c1N(C)Cc1cc2ccccc2s1` as the compound, how does the inhibition read?
**A.** Its inhibition is 101% (inactive).

**Q.** For `CCOC(=O)c1c(C)oc2c1c(C(c1cccnc1)N1CCOCC1)c(O)c1ccccc12` (stereo not given), which inhibition is on record?
**A.** The inhibition was 95% (inactive).

**Q.** For `O=[N+]([O-])c1ccc2nc(/C=C/c3ccc(Cl)cc3)[nH]c2c1`, which inhibition is on record?
**A.** Its inhibition is 98.6% (inactive).

**Q.** For `CCN1CCN(Cc2ccc(NC(=O)c3cc(NC(=O)C(=O)c4c[nH]c5ccccc45)cc(OC)c3)cc2C(F)(F)F)CC1`, which inhibition is on record?
**A.** The inhibition was 81.8% (inactive).

**Q.** Which inhibition does the source give for `CCOC(=O)c1nnc(-c2ccccc2)nc1Sc1ccccc1Cl` here?
**A.** Its inhibition is 66.7% (inactive).

**Q.** With `COc1cc2c(cc1OC)C(c1ccc(-c3ccc(Cl)c(Cl)c3)o1)=NCC2` as the compound, how does the inhibition read?
**A.** The inhibition was 88.4% (inactive).

**Q.** With `COc1cccc(-c2cnc3c(NC=O)cc(-c4ccccc4)cn23)c1` as the compound, how does the inhibition read?
**A.** Its inhibition is 101% (inactive).

**Q.** Which inhibition does the source give for `N#Cc1c(NC(=O)c2ccc(Br)o2)n(-c2ccccc2)c2nc3ccccc3nc12` here?
**A.** Its inhibition is -12.1% (inactive).

**Q.** For `CCOCCCNC(=S)N1CCCN(c2nc3c(C)c(C)ccc3cc2C#N)CC1`, which inhibition is on record?
**A.** The inhibition was 83.8% (inactive).

**Q.** Which inhibition does the source give for `COc1ccc2nc3cc(Cl)ccc3c(Nc3ccc(O)c(CN4CCN(C)CC4)c3)c2c1` here?
**A.** The inhibition was 66.6% (inactive).

**Q.** For `OC1(c2cccc(C(F)(F)F)c2)CCN(c2ncnc3c2[nH]c2ccc(F)cc23)CC1`, which inhibition is on record?
**A.** Its inhibition is 107% (inactive).

**Q.** For `Cn1c(=O)c(NC2CCCCC2)c2c3c(cccc31)C(=O)c1ccccc1-2`, which inhibition is on record?
**A.** Its inhibition is -4.68% (inactive).

**Q.** For `CCc1ccc(CNC(=O)C2CCCN(c3nnc(C)c4c(C)n(-c5ccccc5)nc34)C2)cc1` (stereo not given), which inhibition is on record?
**A.** Its inhibition is 97.2% (inactive).

**Q.** Which inhibition does the source give for `Cc1c(C(=O)OCC(=O)Nc2cccc(S(N)(=O)=O)c2)oc2c1ccc1ccccc12` here?
**A.** Its inhibition is 104% (inactive).

**Q.** With `COc1ccc([N+](=O)[O-])cc1Nc1c2ccccc2nc2ccccc12` as the compound, how does the inhibition read?
**A.** The inhibition was 79.8% (inactive).

**Q.** Which inhibition does the source give for `CCOc1ccc(C(=O)CCN2CCCCCC2)cc1` here?
**A.** Its inhibition is 91.4% (inactive).

**Q.** Which inhibition does the source give for `CCC(C)Nc1nc(-c2cccc(OC)c2O)nc2ccccc12` (stereo not given) here?
**A.** The inhibition was 101% (inactive).

**Q.** With `CCOC(=O)c1ccc(NC(=O)c2ccc(C)c(S(=O)(=O)N3CCOCC3)c2)cc1` as the compound, how does the inhibition read?
**A.** Its inhibition is 102% (inactive).
